The conditions of series [1]: parent drug; cited from earlier work.
The subject of series [2] is four healthy volunteers. In words: Example 9: Stanford Sleepiness Scale study with lorazepam. Particulars: for 2:00 SSS / 4:00 SSS / 6:00 SSS / time until subject was asleep: individual subjects. Format: in vivo, human. As for the experimental part:
The purpose of this study was to determine if the co-administration of pseudoephedrine and guaifenesin with lorazepam is effective in reducing the sedation commonly seen with the administration of lorazepam alone. The research study was performed on four healthy volunteers ages 25-41 years old and 60-75 kg. The study was carried out by two sessions with a one-week interval between the sessions. During the study volunteers completed a set of tests to measure sleepiness by the Stanford Sleepiness Scale (SSS). This test was done before doses of study drug and 2, 4 and 6 hours after doses of study drug (see FIG. 5 for an illustration of the study scheme).
At the first study session volunteers received the treatment (Lorazepam 1.0 mg)+PLAC (placebo)+ and 15 minutes later another PLAC. […] They stayed awake at the 4- and 6-hour time points. Their SSS scores were 2. Two subjects were asleep in one hour. One of them slept 3.5 hours, their SSS at the 6-hour time point was 2. The second subject slept 2.5 hours, and their SSS scores for both the 4- and 6-hour time points were 2. […] They remained awake at the 4- and 6-hour time points. Their SSS scores were 2.
At the second study session volunteers received the treatment (Lorazepam 1.0 mg+60 mg of pseudoephedrine) and 15 minutes later received 400 mg of guaifenesin. During this session all four subjects remained awake most of the time. […] They missed the 2-hour time point measurement, and their SSS scores for the 4- and 6-hour time points were 2 and 3, respectively. […] Their SSS score for 2-hour time point was 2. This subject was asleep again within 3 and a half hours and slept for one hour. They missed the 4-hour time point, but was awake for measurements at the 6-hour time point (SSS was 2). […] They stayed awake the rest of the time, and their SSS scores for the 2-, 4-, and 6-hour time points were 3,2,3 respectively.

For series [3], the system named is subject. The series can be described thus: Example 5: Lorazepam with pseudoephedrine and Mucinex, subject report. Format: in vivo, human. The conditions noted are these: Lorazepam 1 mg and pseudoephedrine 60 mg; 15 minutes later Mucinex 600 mg. As for the experimental part:
The subject reported that they took Lorazepam 1 mg and pseudoephedrine 60 mg at 12 noon and 15 minutes later ingested and Mucinex 600 mg.

For series [4] the following is noted: CNS active agent; cited from earlier work.
Series [5] has as its system Volunteer A, a healthy person. In words: Example 6: Volunteer A, Lorazepam with and without neuromodulators. Format: in vivo, human. On the procedure:
Volunteer A, a healthy person ([…], 95 Kg), was prescribed 1 mg Lorazepam (BDR) by their family doctor for anxiety and anxiety related insomnia. Volunteer A took Lorazepam in conjunction with the neuromodulators to reduce Lorazepam's associated sedative side-effects. Volunteer A, who felt their anxiety peak particularly on weekends, agreed to take Lorazepam during the day together with the neuromodulators. […] When taking Lorazepam simultaneously with Pseudoephedrine, Guaifenesin and, Volunteer A was sedated and less anxious.

The subject of series [6] is treated patients. Particulars: anti-epileptics; cited from earlier work.
The conditions of series [7]: in vivo; cited from earlier work.
For series [8] the following is noted: in vivo, cited from earlier work.
Setting [9] is: First Visit Day on Placebo: Lorazepam 1.0 mg + placebo.
[10] abbreviates: First Visit Day on Placebo: Lorazepam 1.0 mg + placebo, listed as lorazepam.
Setting [11] is: Lorazepam 1.0 mg + pseudoephedrine, guaifenesin 15 minutes later.
[12] abbreviates: Second Visit Day on Active Neuromodulation: Lorazepam 1.0 mg + 60 mg pseudoephedrine, 400 mg guaifenesin 15 minutes later.
Where [13] appears, read: Second Visit Day on Active Neuromodulation: Lorazepam 1.0 mg + 60 mg pseudoephedrine, 400 mg guaifenesin 15 minutes later, listed as lorazepam.
Setting [14] is: 1 mg Lorazepam together with Pseudoephedrine followed by Guaifenesin after 15 minutes.
Where [15] appears, read: Lorazepam followed 15 minutes later by Guaifenesin.
The mark [16] stands for this setting: Lorazepam simultaneously with Pseudoephedrine, Guaifenesin.
Where [17] appears, read: Lorazepam together with pseudoephedrine.

“And” between values parts separate entries of the source, which are not always exact repeats. Equal entries are not always repeated. “Also recorded” adds a separate entry of the source. Where two headings read alike, the source gives them in different places.

In the case of `O=C1Nc2ccc(Cl)cc2C(c2ccccc2Cl)=NC1O` (centres unmarked) [Lorazepam], the “Elimination Half-Life” value in series [1] is 10 to 20 h. Also, the “2:00 SSS” value was “X - Asleep” in series [2] (setting [9]); 3 and 2 in series [2] (setting [12]); 3 (2×) and X - Asleep and 2 in series [2] (setting [13]). The “4:00 SSS” value in series [2] (setting [9]) is 2; in series [2] (setting [10]), 2 (2×) and 3 and X - Asleep; in series [2] (setting [12]), 3 and 2; in series [2] (setting [13]), 3 and 2 (2×) and X - Asleep. The “6:00 SSS” value in series [2] (setting [9]) is 2; in series [2] (setting [10]), 2 (3×) and X - Asleep; in series [2] (setting [12]) it was 3 and 2; in series [2] (setting [13]), 3 (3×) and 2. Besides, the “sleep duration of individual subjects” value in series [2] (Lorazepam 1.0 mg + placebo) was “three hours and 3.5 hours and 2.5 hours and 1 hour 15 minutes”; in series [2] (setting [11]) it was “stayed awake throughout the study and half an hour and 15 minutes and one hour”. Moreover, the “time until subject was asleep” value was “within a half hour; also recorded: in one and a half hours” in series [2] (Lorazepam 1.0 mg + placebo); “within an hour and a half” in series [2] (setting [11]). In addition, the total sleep time in series [2] (second session, Lorazepam administrated with neuromodulators, two subjects) came to 30 min. In addition, in series [3], the subject-reported effects result is reported as “a little “loopy””. Besides, in series [4], the time to peak (Tmax) is 2 h. Moreover, in series [4], the bioactivity was 90%. Also, the anxiety reported result is “feeling at ease and anxiety free” in series [5] (setting [14]); “their anxiety was ameliorated” in series [5] (Lorazepam alone); “hostile and anxious” in series [5] (setting [15]); “less anxious” in series [5] (setting [16]); “upon waking felt much less anxious than without treatment” in series [5] (setting [17]). In addition, the sedation reported result was “did not feel sedated” in series [5] (setting [14]); “severely sedated” in series [5] (Lorazepam alone); “somewhat sedated” in series [5] (setting [15]); “sedated” in series [5] (setting [16]); “as sedated as with Lorazepam alone” in series [5] (setting [17]). For the same compound, in series [5] (Lorazepam alone), the “sleep in an afternoon” value was “over 3 hours”.
`NC(=O)N1c2ccccc2C=Cc2ccccc21` [Carbamazepine]: the Psychiatric side-effects result in series [6] was “Depression, agitation, sedation, psychosis, cognitive”. Also, in series [7], the Elimination Half-Life entry is given as “about 12 hours”.
Consider `CN(C)CCC=C1c2ccccc2C=Cc2ccccc21` [Cyclobenzaprine], for which the Elimination Half-Life in series [7] is 24 to 72 h. Besides, the Half-life in series [8] is 8 to 37 h; in series [8] (listed as Flexeril), 24 to 72 h. The Tmax in series [8] was 1 to 2 h; in series [8] (listed as Flexeril) it was 1 h.

The Tmax is the time at which the peak concentration occurs.

The record behind these values is patent US9579299B2, “CNS pharmaceutical compositions and methods of use” (TARGIA PHARMACEUTICALS, priority 2008, dated 2017).
